According to patent publication US10612071B2, “Method of measuring the deleterious effects of non-caloric artificial sweeteners on enzymatic hydrolysis of sucrose measured in real time” (California State University, Fresno, priority 2016, dated 2020):
Entries after “also recorded” stand apart in the source; their conditions may differ. One block for each molecule: values may come before it.

Assays:
Assay type in all cases: biochemical, S. cerevisiae
[1] = biological target: T1, Invertase (EC 3.2.1.26, β-fructofuranosidase) (Saccharomyces cerevisiae, UniProt P00724); assay: Real-time 1H-NMR (qNMR) progress curve analysis of invertase-catalysed sucrose hydrolysis, Lambert-W fit; conditions: for β-anomer of glucose formed: in the presence of sucralose (FIG. 5); for α-anomer of glucose formed: in the presence of sucralose (FIG. 5, 50 mM each)
T1 construct: purchased Sigma-Aldrich
Excerpt: Equation [5], derived from Equation [2], relates the substrate concentration at any time ([S]) to its initial concentration ([S]0), the Michaelis-Menten kinetic parameters Vmax and KM. Equation [5] is used to fit the real time experimental data obtained for enzyme kinetics using the analysis code written using R-Statistical environment (R Core Team 2014).
(§1) Invertase (EC 3.2.1.26, β-fructofuranosidase, S. cerevisiae) was purchased from Sigma-Aldrich with a specific activity of >300 u/mg of solid (pH 4.6, 303 K).
Two standard samples were made in standard 5 mm NMR tubes to set up the NMR parameter.
All NMR kinetics solutions were made in an Eppendorf tube with a volume of 550 μL prior to adding 100 μL of invertase into the Eppendorf tube then transferring 600 μL of the solution into a NMR tube. The 100 μL invertase solution was added into the Eppendorf tube when the NMR kinetics experiment was ready to start. A timer was set at the beginning of the addition of the invertase solution in order to account for the delay time (the time before the collection of the NMR spectra) as this is a crucial part of the latter calculation.
^1H-NMR time-course data were collected in real time by qNMR (Vairan-Agilent, VNMRS system) and the kinetic data were subsequently processed using a non-linear least square fit procedure by using the Lambert-W function. This method was applied to determine the effect on the enzyme kinetics of hydrolysis, a fundamental step in converting the sucrose to glucose and fructose. Experimental results obtained using the direct real-time measurements were validated using a glucometer based approach.
The spectrometer software is used to find the integration under each peak of the sucrose (5.41 ppm) and TSP (0.0 ppm). The concentration of the sucrose peak is calculated with reference to the known concentration of TSP. If multiple experiments are performed, averages and standard deviations of the integrations of the trials at each temperature is calculated. A two-column excel or text (tab limited format) with X=Time and Y=[S] is produced as the input to the R-program. The written code utilizes the following external libraries: spatstat and gsl (to implement functions such as LambertW function), xtable (for table manipulations) and ggplot2 (to make plots (optional)). The R-code reads the input file and creates a data fit, statistics and plot with the experimental and fitted values. Typically the procedure works with a minimum of 15 time points sampled uniformly over the experimental time period chosen and it utilizes a non-linear least square fitting procedure. In addition to generating a plot (FIG. 10A), the code generates a file in picture format (.png) and a tab-limited text file that can be imported into other plotting routines. The statistical parameters of the fit (FIG. 10B) are also available in a tabular form for reporting purposes, which includes the fitted values (Coef.), standard error of the fit, t-statistics and p-value for each of the parameters. If the signal has not decayed to zero, an additional parameter (FIG. 10B) can be used as an offset.

[2] = biological target: T1, Invertase (EC 3.2.1.26, β-fructofuranosidase); assay: Glucometer-based Michaelis-Menten kinetics of invertase-catalysed sucrose hydrolysis; conditions: for reaction velocity of the sucrose: sucralose 20 mM or lower (FIG. 11)
Excerpt: as §1

[3] = substrate: OC[C@H]1O[C@@](CO)(O[C@H]2O[C@H](CO)[C@@H](O)[C@H](O)[C@H]2O)[C@@H](O)[C@@H]1O; assay: Real-time 1H-NMR (qNMR) progress curve analysis of invertase-catalysed sucrose hydrolysis, Lambert-W fit; conditions: 30.0 °C
[4] = other: Average of three trials, sucrose 42 mM, no sucralose
[5] = other: Trial 1, sucrose 42 mM, no sucralose
[6] = other: Trial 2, sucrose 42 mM, no sucralose
[7] = other: Trial 3, sucrose 42 mM, no sucralose
[8] = other: no sucralose (0 mM), sucrose 40 mM, sucrose:sucralose 1:0

- decrease of the maximal velocity (Vmax) ([1]; 1:2 ratio of sucrose:sucralose): ~33%
- enzyme catalytic activity inhibited ([1]; 1:2 ratio of sucrose:sucralose): 50%
- increase of the KM value ([1]; 1:2 ratio of sucrose:sucralose): ~50%
- decrease of the maximal velocity (Vmax) ([1]; addition of sucralose (50 mM)): 37%
- β-anomer of glucose formed ([1]; after 20 minutes): about 7 mM
- sucrose concentration remaining ([1]; after 60 minutes of enzymatic conversion, in the presence of sucralose, starting sucrose 50 mM (FIG. 4)): about 15 mM
- β-anomer of glucose formed ([1]; after 60 minutes): about 10 mM
- α-anomer of glucose formed ([1]; after 60 minutes): about 22 mM
- β-anomer of glucose formed ([1]; after 120 minutes): about 17 mM
- α-anomer of glucose formed ([1]; after 120 minutes): about 22.5 mM
- Vmax ([1]; in the presence of sucralose, FIG. 4 (equimolar sucrose:sucralose, ~50 mM each)): 1.87 µM/min
- decrease of Vmax per unit increase of sucralose ([1]; regression line, FIG. 12B): 6.54 ± 0.03 µM/min
- decrease of catalytic efficiency of the enzyme per unit increase of sucralose (in mM) ([1]; regression line, FIG. 12C): 152.1 mM^2/min
- Vmax ([1]; sucralose 1 mM, sucrose 40 mM (40:1)): 2.71 ± 0.04 µM/min
- Vmax ([1]; sucralose 5 mM, sucrose 40 mM (8:1)): 2.95 ± 0.04 µM/min
- Vmax ([1]; sucralose 10 mM, sucrose 40 mM (4:1)): 2.61 ± 0.03 µM/min
- Vmax ([1]; sucralose 20 mM, sucrose 40 mM (2:1)): 2.49 ± 0.02 µM/min
- Vmax ([1]; sucralose 40 mM, sucrose 40 mM (1:1)): 2.25 ± 0.02 µM/min
- increase of the KM value ([1]; sucralose 50 mM): more than 20%
- reduction of the enzymatic activity of the invertase ([1]; sucralose 50 mM): 20%
- Vmax ([1]; sucralose 60 mM, sucrose 40 mM (1:1.5)): 1.87 ± 0.02 µM/min
- Vmax ([1]; sucralose 80 mM, sucrose 40 mM (1:2)): 1.72 ± 0.02 µM/min
- inhibition (substrate inhibition model curve) ([2]; molar ratio of sucrose to sucralose 1:0.25 (FIG. 13)): more than 50%
- reaction velocity of the sucrose ([2]; substrate concentration 0.1 M): over 0.4 M/min
- reaction velocity of the sucrose ([2]; substrate concentration about 0.27 M): over 0.4 M/min
Molecule: OC[C@H]1O[C@H](O[C@]2(CCl)O[C@H](CCl)[C@@H](O)[C@@H]2O)[C@H](O)[C@@H](O)[C@H]1Cl [sucralose]
- conversion of sucralose by enzymatic hydrolysis (invertase) ([1]; sucralose concentration during sucrose hydrolysis): not affected by enzymatic hydrolysis; also recorded: not converted

- Vmax ([1]; no sucralose (0 mM), sucrose 40 mM, sucrose:sucralose 1:0): 2.57 ± 0.03 µM/min
Molecule: OC[C@H]1O[C@@](CO)(O[C@H]2O[C@H](CO)[C@@H](O)[C@H](O)[C@H]2O)[C@@H](O)[C@@H]1O [sucrose]

B1: Invertase (EC 3.2.1.26, β-fructofuranosidase) (Saccharomyces cerevisiae S288C) (protein)
chain: SMTNETSDRPLVHFTPNKGWMNDPNGLWYDEKDAKWHLYFQYNPNDTVWGTPLFWGHATSDDLTNWEDQPIAIAPKRNDSGAFSGSMVVDYNNTSGFFNDTIDPRQRCVAIWTYNTPESEEQYISYSLDGGYTFTEYQKNPVLAANSTQFRDPKVFWYEPSQKWIMTAAKSQDYKIEIYSSDDLKSWKLESAFANEGFLGYQYECPGLIEVPTEQDPSKSYWVMFISINPGAPAGGSFNQYFVGSFNGTHFEAFDNQSRVVDFGKDYYALQTFFNTDPTYGSALGIAWASNWEYSAFVPTNPWRSSMSLVRKFSLNTEYQANPETELINLKAEPILNISNAGPWSRFATNTTLTKANSYNVDLSNSTGTLEFELVYAVNTTQTISKSVFADLSLWFKGLEDPEEYLRMGFEVSASSFFLDRGNSKVKFVKENPYFTNRMSVNNQPFKSENDLSYYKVYGLLDQNILELYFNDGDVVSTNTYFMTTGNALGSVNMTTGVDNLFYIDKFQVREVK
notes: purchased Sigma-Aldrich
- Km [3, 4]: 38.57 ± 3.72 mM
- Vmax [3, 4]: 2.54 ± 0.18 µM/min
- Km [3, 5]: 34.69 ± 3.96 mM
- Vmax [3, 5]: 2.34 ± 0.18 µM/min
- Km [3, 6]: 43.59 ± 11.90 mM
- Vmax [3, 6]: 2.77 ± 0.54 µM/min
- Km [3, 7]: 37.44 ± 7.79 mM
- Vmax [3, 7]: 2.51 ± 0.36 µM/min
- Km [3, 8]: 50.60 mM
- Vmax [3, 8]: 2.57 ± 0.03 µM/min
